Measurements published in ChEMBL document CHEMBL4052797, “N-alkyl-[1,1'-biphenyl]-2-sulfonamide derivatives as novel broad spectrum anti-epileptic drugs with efficacy equivalent to that of sodium valproate” (2017).
Calls of active or inactive are those of the source.

How the values were obtained:
Mus musculus [1] = experiment: Neurotoxicity in po dosed mouse by rotarod test; format: functional
Rattus norvegicus [2] = experiment: Anticonvulsant activity in amygdala kindling rat model assessed as change in after discharge threshold at 600 mg/kg, po relative to control; format: functional
Mus musculus [3] = experiment: Anticonvulsant activity in po dosed maximal electroshock induced seizure mouse model assessed as reduction in convulsions; format: functional
Rattus norvegicus [4] = experiment: Anticonvulsant activity in amygdala kindling rat model assessed as change in after discharge duration at 300 mg/kg, po (reference value: -5.5%); format: functional
Mus musculus [5] = experiment: Anticonvulsant activity in po dosed 6-Hz induced seizure mouse model; format: functional
Rattus norvegicus [6] = experiment: Anticonvulsant activity in amygdala kindling rat model assessed as change in after discharge threshold at 300 mg/kg, po relative to control; format: functional
Rattus norvegicus [7] = experiment: Anticonvulsant activity in amygdala kindling rat model assessed as change in after discharge duration at 600 mg/kg, po (reference value: -5.5%); format: functional
Mus musculus [8] = experiment: Anticonvulsant activity in subcutaneous pentylenetetrazole-induced seizure mouse model assessed as reduction in convulsions at 100 mg/kg, po; format: functional, organism-based
Mus musculus [9] = experiment: Anticonvulsant activity in maximal electroshock induced seizure mouse model assessed as reduction in convulsions at 100 mg/kg, po; format: functional, organism-based
Mus musculus [10] = experiment: Anticonvulsant activity in maximal electroshock induced seizure mouse model assessed as reduction in convulsions at 50 mg/kg, po; format: functional, organism-based
Mus musculus [11] = experiment: Anticonvulsant activity in subcutaneous pentylenetetrazole-induced seizure mouse model assessed as reduction in convulsions at 50 mg/kg, po; format: functional, organism-based
Rattus norvegicus [12] = experiment: Anticonvulsant activity in amygdala kindling rat model assessed as change in after discharge duration at 30 mg/kg, po (reference value: -5.5%); format: functional
Rattus norvegicus [13] = experiment: Anticonvulsant activity in amygdala kindling rat model assessed as change in after discharge duration at 100 mg/kg, po (reference value: -5.5%); format: functional
Rattus norvegicus [14] = experiment: Anticonvulsant activity in amygdala kindling rat model assessed as change in after discharge threshold at 30 mg/kg, po relative to control; format: functional
Rattus norvegicus [15] = experiment: Anticonvulsant activity in amygdala kindling rat model assessed as change in after discharge threshold at 100 mg/kg, po relative to control; format: functional
Mus musculus [16] = experiment: Anticonvulsant activity in po dosed subcutaneous pentylenetetrazole-induced seizure mouse model assessed as reduction in convulsions; format: functional
Mus musculus [17] = experiment: Anticonvulsant activity in maximal electroshock induced seizure mouse model assessed as reduction in convulsions at 25 mg/kg, po; format: functional, organism-based
Mus musculus [18] = experiment: Anticonvulsant activity in ip dosed maximal electroshock induced seizure mouse model assessed as suppression in hindlimb tonic extension; format: functional
Mus musculus [19] = experiment: Anticonvulsant activity in ip dosed subcutaneous pentylenetetrazole-induced seizure mouse model assessed no observable episode of clonic seizure; format: functional
Mus musculus [20] = experiment: Anticonvulsant activity in subcutaneous pentylenetetrazole-induced seizure mouse model assessed as reduction in convulsions at 25 mg/kg, po; format: functional, organism-based
Mus musculus [21] = experiment: Therapeutic index, ratio of TD50 for neurotoxicity in po dosed mouse to ED50 for po dosed maximal electroshock induced seizure mouse model
Mus musculus [22] = experiment: Therapeutic index, ratio of TD50 for neurotoxicity in po dosed mouse to ED50 for po dosed 6-Hz induced seizure mouse model

CCCC(CCC)C(=O)[O-].[Na+] [VALPROATE SODIUM]
TD50 (Mus musculus [1]): 396 mg/kg | Activity (Rattus norvegicus [2]): 81.3% | ED50 (Mus musculus [3]): 337 mg/kg | Activity (Rattus norvegicus [4]): 11.1% | ED50 (Mus musculus [5]): 394 mg/kg | Activity (Rattus norvegicus [6]): -5.4% | Activity (Rattus norvegicus [7]): -22.5%

CN(C)S(=O)(=O)c1ccccc1-c1cccs1
Activity (Mus musculus [8]): inactive | Activity (Mus musculus [9]): inactive

CCS(=O)(=O)c1ccccc1-c1ccccc1
Activity (Mus musculus [8]): Active | Activity (Mus musculus [9]): inactive

CNS(=O)(=O)c1ccccc1-c1ccccc1
Activity (Mus musculus [10]): Active | Activity (Mus musculus [11]): inactive | Activity (Mus musculus [9]): Active

CNS(=O)(=O)c1ccccc1-c1ccccc1Cl
Activity (Mus musculus [10]): Active | Activity (Mus musculus [9]): Active

O=S(=O)(c1ccccc1-c1ccccc1)C(F)(F)F
Activity (Mus musculus [8]): inactive | Activity (Mus musculus [9]): inactive

CCCNS(=O)(=O)c1ccccc1-c1ccccc1
Activity (Mus musculus [9]): Active

NS(=O)(=O)Cc1noc2ccccc12 [ZONISAMIDE]
Activity (Rattus norvegicus [12]): 7% | ED50 (Mus musculus [3]): 20 mg/kg | Activity (Rattus norvegicus [13]): -37.6% | Activity (Rattus norvegicus [14]): 5.1% | Activity (Rattus norvegicus [15]): 45.9% | ED50 (Mus musculus [16]): > 500 mg/kg

CN(C)S(=O)(=O)c1ccccc1-c1ccncc1
Activity (Mus musculus [9]): inactive

CNS(=O)(=O)c1ccccc1-c1ccc(F)cc1
Activity (Mus musculus [8]): inactive | Activity (Mus musculus [10]): Active | Activity (Mus musculus [9]): Active

CNS(=O)(=O)c1ccccc1-c1cccc(OC)c1
Activity (Mus musculus [9]): inactive

CNS(=O)(=O)c1ccccc1-c1ccccc1OC
Activity (Mus musculus [8]): inactive | Activity (Mus musculus [9]): inactive

CN(C)S(=O)(=O)c1ccccc1-c1ccoc1
Activity (Mus musculus [9]): inactive

CNS(=O)(=O)c1ccccc1-c1ccc(Cl)cc1
Activity (Mus musculus [17]): inactive | Activity (Mus musculus [9]): Active

NS(=O)(=O)c1ccccc1-c1ccccc1
Activity (Mus musculus [10]): Active | Activity (Mus musculus [9]): Active

CNS(=O)(=O)c1ccccc1-c1cccc(Cl)c1
Activity (Mus musculus [17]): inactive | Activity (Mus musculus [9]): Active

CN(C)S(=O)(=O)c1ccccc1-c1ccco1
Activity (Mus musculus [9]): inactive

CN(C)S(=O)(=O)c1cccc(Cl)c1
Activity (Mus musculus [10]): Active

CC1(C)O[C@@H]2[C@@H](CO[C@@]3(COS(N)(=O)=O)OC(C)(C)O[C@@H]23)O1 [TOPIRAMATE]
ED50 (Mus musculus [18]): 33 mg/kg | ED50 (Mus musculus [19]): > 800 mg/kg

CNS(=O)(=O)c1ccccc1-c1cccc(F)c1
Activity (Mus musculus [17]): inactive | Activity (Mus musculus [9]): Active

CCNS(=O)(=O)c1ccccc1-c1ccccc1
Activity (Mus musculus [17]): inactive | Activity (Mus musculus [10]): Active | Activity (Mus musculus [20]): inactive | Activity (Mus musculus [9]): Active

CN(C)S(=O)(=O)c1ccccc1-c1ccccn1
Activity (Mus musculus [8]): inactive

CN(C)S(=O)(=O)c1ccccc1-c1ccccc1
Activity (Mus musculus [10]): inactive | Activity (Mus musculus [11]): inactive

CNS(=O)(=O)c1ccccc1-c1ccccc1F
TD50 (Mus musculus [1]): 107 mg/kg | Activity (Mus musculus [17]): Active | ED50 (Mus musculus [3]): 16 mg/kg | Ratio TD50/ED50 (Mus musculus [21]): 6.7 | Activity (Rattus norvegicus [13]): -1.4% | Activity (Mus musculus [8]): Active | ED50 (Mus musculus [5]): 53 mg/kg | Activity (Mus musculus [10]): Active | Ratio TD50/ED50 (Mus musculus [22]): 2 | Activity (Mus musculus [11]): Active | Activity (Mus musculus [9]): Active | Activity (Rattus norvegicus [15]): 352.5%

CNS(=O)(=O)c1ccccc1-c1ccc(OC)cc1
Activity (Mus musculus [8]): inactive | Activity (Mus musculus [9]): inactive

CS(=O)(=O)c1ccccc1-c1ccccc1F
Activity (Mus musculus [9]): Active

CN(C)S(=O)(=O)c1ccccc1-c1cccnc1
Activity (Mus musculus [8]): inactive
